Measurements taken from US20260176289A1, “SMALL MOLECULE INHIBITORS OF KRAS PROTEINS” (Merck Sharp & Dohme LLC, priority 2022, published 2026).

How the values were obtained:
[1] = target: KRAS-G12V (Homo sapiens, UniProt P01116, G12V); assay: SOS-catalyzed nucleotide exchange assay (Procedure A, TR-FRET), KRAS-G12V; assay type: biochemical; details: nucleotide exchange, read-out: KRAS G12V GNE IC50
In short: (§1)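 RAS (G12C carries C51S/C80L/C118S) loaded with Bodipy-GDP, complexed with Tb-streptavidin; cpd 60 min RT; + SOS/3 mM GTP. G12C 3/40 nM, WT 1/40, NRAS 1.25/40 nM RAS/SOS, 60 min; G12V 1.25/160 nM, 90 min. Normalized to DMSO and saturating inhibitor; 4PL fit.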

[2] = target: KRAS-G12C (C51S/C80L/C118S) (Homo sapiens, UniProt P01116, C118S/C51S/C80L/G12C); assay: SOS-catalyzed nucleotide exchange assay (Procedure A, TR-FRET), KRAS-G12C; assay type: biochemical; details: nucleotide exchange, Procedure A; read-out: KRAS G12C GNE IC50
In short: as §1

[3] = target: KRAS-G13D (Homo sapiens, UniProt P01116, G13D); assay: SOS-catalyzed nucleotide exchange assay (Procedure A, TR-FRET), KRAS-G13D; assay type: biochemical; details: nucleotide exchange, Procedure A; read-out: KRAS G13D GNE IC50
[4] = target: KRAS-G12D (Homo sapiens, UniProt P01116, G12D); assay: SOS-catalyzed nucleotide exchange assay (Procedure A, TR-FRET), KRAS-G12D; assay type: biochemical; details: nucleotide exchange, read-out: KRAS G12D GNE IC50
In short: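 Signal ratio (520/495 nm, excitation 340 nm) reports Bodipy-GDP retention on biotinylated RAS after SOS-catalyzed exchange with 3 mM GTP. SOS was 40 nM, except 160 nM for G12V. Room-temperature exchange lasted 60 min (90 min for G12V), following a 60 min compound preincubation.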

[5] = target: KRAS-WT (Homo sapiens, UniProt P01116); assay: SOS-catalyzed nucleotide exchange assay (Procedure A, TR-FRET), KRAS-WT; assay type: biochemical; details: nucleotide exchange, read-out: KRAS WT GNE IC50
In short: as §1

[6] = tested on: PANC08.13 cells; assay: Cellular phospho-ERK assay, PANC08.13 cells (homozygous KRAS-G12D); assay type: cell-based; details: Homo sapiens, PANC-08-13, KRAS-G12D, 2 hours, read-out: PANC-08.13 pERK IC50
Experimental: Procedure for Cellular Phospho-ERK Assay in KRAS Wild Type and Mutant (G12D, G12V) Cell Lines
MKN-1 cells (JCRB JCRB0252) containing amplified wild-type KRAS, were cultured in growth medium that contains RPMI 1640-GlutaMAX™-I (ThermoFisher Scientific 61870) containing 10% heat inactivated fetal bovine serum (ThermoFisher Scientific 10091148), 1 mM sodium pyruvate and 10 mM HEPES. PANC08.13 cells (ATCC® CRL-2551™), containing homozygous KRAS-G12D activating mutation, were cultured in growth medium made of RPMI1640-GlutaMAX™-I (ThermoFisher Scientific 61870) containing 15% heat inactivated fetal bovine serum (ThermoFisher Scientific 10091148)). AsPC-1 cells (ATCC® CRL-1682™), containing homozygous KRAS-G12D activating mutation, were cultured in T150 flask in growth medium (RPMI medium 1640-GlutaMAX™-I (ThermoFisher Scientific 61870) containing 10% fetal bovine serum (ThermoFisher Scientific 10091148)). SW620 cells (ATCC® […]), containing homozygous KRAS-G12V activating mutation, were cultured in growth medium that contains RPMI 1640-GlutaMAX™-I (ThermoFisher Scientific 61870) containing 10% heat inactivated fetal bovine serum (ThermoFisher Scientific 10091148).
Cells for the assay were harvested in growth medium after TrypLE (ThermoFisher scientific 12604021) digestion and were seeded in a 384-well collagen coated cell culture plate (Corning 356702) at a density of 10,000-15,000 cells/20 μL/well, and incubated at 37° C., 5% CO2 overnight. The compound (with 10 mM stock concentration) dose-response titrations were prepared [30 μM final ERK detection assay concentration and 1:3 dilutions, 10-point dose response] and appropriate amounts (270 nL) of test compounds were dispensed in a 384-well intermediate plate using an Echo 550 liquid handler. 30 μL/well of RPMI medium 1640-GlutaMAX™—I was added to the intermediate plate and the contents of the intermediate plate (10 μL/well) were then transferred to the 384-well collagen coated cell culture plate, which was incubated at 37° C., 5% CO2 for 2 hours. After removal of medium from the collagen coated cell culture plate, cells were lysed in lysis buffer from Alpha SureFire® Ultra™ Multiplex p-ERK and total ERK assay kit (PerkinElmer MPSU-PTERK) containing Halt™ Protease and Phosphatase inhibitor cocktail (ThermoFisher Scientific 78446) at room temperature with constant shaking at 300 rpm for 30 minutes. The cell lysates were then transferred to an OptiPlate-384 plate (PerkinElmer 6005620), and the phosphorylation of ERK (p-ERK) and total ERK levels were detected by Alpha SureFire® Ultra™ Multiplex p-EEK kit and total ERK assay kit (PerkinElmer MPSU-PTERK) following the manufacturer's protocol. Assay plates were read on a En Vision Multimode Plate Reader (PerkinElmer), and the ratio of p-ERK vs. total ERK in each well was used as the final readout. Dose response curves were analyzed using a 4-parameter logistic model to calculate IC50 values using Spotfire software.

[7] = tested on: SW620 cells; assay: Cellular phospho-ERK assay, SW620 cells (homozygous KRAS-G12V); assay type: cell-based; details: Homo sapiens, SW-620, KRAS-G12V, 2 hours, read-out: SW620 pERK IC50
In short: (§2)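 Inhibition of ERK phosphorylation was determined after treating attached cells with compound for 2 h; top concentration 30 μM, serial 1:3 dilution. Each well's p-ERK:total ERK ratio, read by SureFire Ultra, was fitted with a four-parameter model for IC50.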

[8] = tested on: MKN-1 cells; assay: Cellular phospho-ERK assay, MKN-1 cells (amplified wild-type KRAS); assay type: cell-based; details: Homo sapiens, amplified wild-type KRAS, 2 hours, read-out: MKN1 pERK IC50
In short: as §2

Sequence of KRAS-WT (P01116 with tags, fused parts or gaps isoform P01116-2): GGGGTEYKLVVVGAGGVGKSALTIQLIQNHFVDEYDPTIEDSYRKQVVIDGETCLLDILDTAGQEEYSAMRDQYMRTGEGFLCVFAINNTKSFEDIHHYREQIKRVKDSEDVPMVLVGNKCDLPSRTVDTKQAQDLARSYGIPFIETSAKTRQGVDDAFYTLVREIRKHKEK
Sequence of KRAS-G12V (P01116 with tags, fused parts or gaps isoform P01116-2 G12V): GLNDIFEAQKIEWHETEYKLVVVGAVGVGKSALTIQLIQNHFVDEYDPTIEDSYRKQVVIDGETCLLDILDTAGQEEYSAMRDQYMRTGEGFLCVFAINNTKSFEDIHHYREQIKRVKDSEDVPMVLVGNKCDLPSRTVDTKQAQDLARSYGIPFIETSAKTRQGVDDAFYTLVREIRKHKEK
Sequence of KRAS-G12D (P01116 with tags, fused parts or gaps isoform P01116-2 G12D): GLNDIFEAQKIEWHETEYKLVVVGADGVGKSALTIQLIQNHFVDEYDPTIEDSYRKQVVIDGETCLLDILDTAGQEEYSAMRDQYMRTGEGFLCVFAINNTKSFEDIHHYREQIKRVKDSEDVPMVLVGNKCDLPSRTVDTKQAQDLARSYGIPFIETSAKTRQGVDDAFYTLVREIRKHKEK
Sequence of KRAS-G12C (C51S/C80L/C118S) (P01116 with tags, fused parts or gaps isoform P01116-2 G12C/C51S/C80L/C118S): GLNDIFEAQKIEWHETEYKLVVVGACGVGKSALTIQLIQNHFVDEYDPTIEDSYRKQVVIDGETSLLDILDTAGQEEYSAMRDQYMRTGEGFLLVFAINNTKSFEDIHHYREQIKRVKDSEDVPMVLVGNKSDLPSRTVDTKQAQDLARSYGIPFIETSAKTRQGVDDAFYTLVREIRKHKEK
Sequence of KRAS-G13D (P01116 with tags, fused parts or gaps isoform P01116-2 G13D): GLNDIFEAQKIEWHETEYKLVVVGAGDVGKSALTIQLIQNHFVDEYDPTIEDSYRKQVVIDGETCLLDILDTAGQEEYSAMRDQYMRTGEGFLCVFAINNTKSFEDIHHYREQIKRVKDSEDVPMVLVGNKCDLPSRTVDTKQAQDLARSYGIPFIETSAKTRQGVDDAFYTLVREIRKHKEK

SMILES	IC50 [1]	IC50 [2]	IC50 [3]	IC50 [4]	IC50 [5]	IC50 [6]	IC50 [7]	IC50 [8]
Cc1cc2[nH]nc(C)c2c(-c2nccc3c4c(N5CCOC[C@@](C)(O)C5)nc(OC[C@@]56CCCN5C[C@H](F)C6)nc4n(C)c23)c1C(F)F (single isomer, unassigned) [Ex-8]	1650 nM	1190 nM	2090 nM	1500 nM	2250 nM	1430 nM	–	–
Cc1cc2[nH]nc(C#N)c2c(-c2nccc3c4c(N5CCOC[C@@](C)(O)C5)nc(OC[C@@]56CCCN5C[C@H](F)C6)nc4n(C)c23)c1C(F)F (single isomer, unassigned) [Ex-9]	575 nM	566 nM	560 nM	616 nM	1350 nM	1690 nM	–	–
Cn1c2nc(OC[C@@]34CCCN3C[C@H](F)C4)nc(N3CCOC[C@@](C)(O)C3)c2c2ccnc(-c3c(C(F)F)c(Cl)cc4[nH]nc(C#N)c34)c21 (single isomer, unassigned) [Ex-12]	2960 nM	584 nM	2650 nM	2150 nM	5930 nM	6060 nM	–	–
Cc1n[nH]c2cc(Cl)c(C(F)F)c(-c3nccc4c5c(N6CCOC[C@@](C)(O)C6)nc(OC[C@@]67CCCN6C[C@H](F)C7)nc5n(C)c34)c12 (single isomer, unassigned) [Ex-13]	1660 nM	1480 nM	4860 nM	3660 nM	2750 nM	4300 nM	–	–
Cc1cc2[nH]ncc2c(-c2nccc3c4c(N5CC6CCC(F)(C5)N6)nc(OC[C@@]56CCCN5C[C@H](F)C6)nc4n(C)c23)c1C(F)(F)F (single isomer, unassigned) [Ex-22]	409 nM	189 nM	456 nM	2440 nM	975 nM	3510 nM	–	–
Cc1cc2[nH]ncc2c(-c2nccc3c4c(N5CCOC[C@@](C)(O)C5)nc(OC[C@]5(CN(C)C)CC5(F)F)nc4n(C)c23)c1C(F)(F)F [Ex-20, (6S)-4-(2-(((R)-1-((dimethylamino)methyl)-2,2-difluorocyclopropyl)methoxy)-9-methyl-8-(6-methyl-5-(trifluoromethyl)-1H-indazol-4-yl)-9H-pyrido[4′,3′:4,5]pyrrolo[2,3-d]pyrimidin-4-yl)-6-methyl-1,4-oxazepan-6-ol]	62.9 nM	–	–	37.9 nM	125 nM	80.6 nM	539 nM	150 nM

Now from value to compound, other results behind:

IC50 [1]	IC50 [2]	IC50 [3]	IC50 [4]	IC50 [5]	IC50 [6]	SMILES	IC50 [7]	IC50 [8]
536 nM	124 nM	430 nM	339 nM	568 nM	1640 nM	Cc1cc2[nH]nc(C#N)c2c(-c2nccc3c4c(N5CCOC[C@@](C)(O)C5)nc(OC[C@@]56CCCN5C[C@H](F)C6)nc4n(C)c23)c1C(F)(F)F (single isomer, unassigned) [Ex-4]	–	–
657 nM	190 nM	789 nM	1430 nM	1200 nM	3060 nM	Cc1cc2[nH]ncc2c(-c2nccc3c4c(N5CCOCC(O)C5)nc(OC[C@@]56CCCN5C[C@H](F)C6)nc4n(C)c23)c1C(F)(F)F (single isomer, unassigned) [Ex-23]	–	–
934 nM	275 nM	541 nM	629 nM	973 nM	2040 nM	Cc1cc2c3c(N4CCOC[C@@](C)(O)C4)nc(OC[C@@]45CCCN4C[C@H](F)C5)nc3n(C)c2c(-c2c(C(F)(F)F)c(C)cc3[nH]ncc23)n1 (single isomer, unassigned) [Ex-28]	–	–
404 nM	233 nM	543 nM	276 nM	681 nM	561 nM	Cc1nc2[nH]ncc2c(-c2nccc3c4c(N5CCOC[C@@](C)(O)C5)nc(OC[C@@]56CCCN5C[C@H](F)C6)nc4n(C)c23)c1C(F)(F)F [Ex-14, (6S)-4-(2-(((2R,7aS)-2-fluorotetrahydro-1H-pyrrolizin-7a(5H)-yl)methoxy)-9-methyl-8-(6-methyl-5-(trifluoromethyl)-1H-pyrazolo[3,4-b]pyridin-4-yl)-9H-pyrido[4′,3′:4,5]pyrrolo[2,3-d]pyrimidin-4-yl)-6-methyl-1,4-oxazepan-6-ol]	–	–
